Measured values reported in patent EP0606463B1, “NEUROMEDIN B RECEPTOR ANTAGONISTS” (The Administrators of The Tulane Educational Fund, priority 1992, dated 1994).
Where a SMILES comes first, the peptide text is derived from it. Bridges are numbered along the chain shown (N, C = ends). [ ]: non-standard residue; d: D form. 2Nal = N[C@@H](Cc1ccc2ccccc2c1)C(=O)O; d2Nal = N[C@H](Cc1ccc2ccccc2c1)C(=O)O; Lys(Et2) = CCN(CC)CCCC[C@H](N)C(=O)O

Key:
rat NMB receptor = target: T1, rat NMB receptor (Rattus norvegicus, UniProt P24053); assay: Binding of 125I-[D-Tyr0]NMB to NMB-R transfected BALB 3T3 cells; conditions: for fold by which cyclo SS-octa was more potent than the analog: inhibition of ^125I-[Tyr^0]NMB binding to NMB-R transfected cells; for decrease in NMB receptor affinity compared with #1: structure-function comparison of Table 1 values
T1 construct: a full length NMB-preferring bombesin receptor clone generated from rat esophagus; expressed in transfected cells; host or cells: BALB 3T3 cells
T1 sequence (P24053 1-390): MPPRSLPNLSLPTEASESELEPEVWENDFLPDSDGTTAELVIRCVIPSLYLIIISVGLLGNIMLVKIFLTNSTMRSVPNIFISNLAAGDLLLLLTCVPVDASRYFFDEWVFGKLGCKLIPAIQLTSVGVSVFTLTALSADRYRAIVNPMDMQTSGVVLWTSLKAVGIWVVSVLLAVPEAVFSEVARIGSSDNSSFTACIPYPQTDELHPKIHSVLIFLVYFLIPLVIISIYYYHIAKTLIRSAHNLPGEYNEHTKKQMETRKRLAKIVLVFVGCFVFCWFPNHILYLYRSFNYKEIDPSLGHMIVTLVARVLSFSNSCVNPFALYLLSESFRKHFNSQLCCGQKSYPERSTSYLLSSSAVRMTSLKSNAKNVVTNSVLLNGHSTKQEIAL
Experimental: (§1) Cells were passaged every 3-4 days at confluence, using 0.1% trypsin in 1 mM EDTA. Rat glioblastoma C-6 tumor cells were maintained similarly and were passaged weekly at confluence. Both cell lines were cultured at 37°C in a 5% CO2 atmosphere. Rat AR 42J pancreatic acinar cells were cultured in Dulbecco's modified Eagle's medium (DMEM) without antibiotics and supplemented with 10% (vol/vol) fetal calf serum. The incubation atmosphere consisted of 10% CO2-90% humidified air at 37°C.

NMB Receptor = target: T2, NMB Receptor (Rattus norvegicus, UniProt P24053); assay: [3H]inositol phosphates (IP) in NMB-R transfected cells; assay type: cell-based; conditions: for NMB-R Transfected Cells [^3H]IP Alone (10 µ M): analog 10 µM alone, no-additive control 13 ± 3; for NMB-R Transfected Cells [^3H]IP Plus NMB (3 nM): analog 10 µM plus NMB 3 nM, NMB without analog 186 ± 58; for effect on NMB-stimulated increase in [^3H]IP: NMB-R transfected cells, 3 nM NMB, peptide 10 µM
T2 construct: a full length NMB-preferring bombesin receptor clone generated from rat esophagus; expressed in transfected cells; host or cells: BALB 3T3 cells
T2 sequence (P24053 1-390): T1 sequence (P24053 1-390)
Experimental: as §1, with “As described previously [Wada, E., et al. Neuron 6:421 (1991)], BALB 3T3 cells expressing a stably transfected rat NMB receptor (NMB-R transfected cells) were obtained using calcium phosphate precipitation of a full length NMB-preferring bombesin receptor clone generated from rat esophagus and subcloned into a modified version of the pCD2 plasmid. Cells” for “Cells”
Total phosphoinositides in C-6 cells and in NMB-R transfected cells were determined as described previously, with minor modifications [Benya, R. V. et al. Mol. Pharmacol. 42:1058 (1992); and Wang, L-H. et al. Biochem. J. 286:641 (1992)]. Cells were grown to confluence in 24-well plates and then loaded with 100 µCi/ml myo-[2-^3H]inositol in Dulbecco's modified essential medium with 2% fetal bovine serum at 37°C for 48 hrs. Cells were washed and incubated in phosphoinositide buffer (standard buffer additionally containing 10 mM LiCl, 20 mM HEPES, 2 mM CaCl2, 2% BSA, and 1.2 mM MgSO4) for 15 min and then for 60 min at 37°C with agonists at various concentrations or with 3 nM NMB (a half-maximal effective concentration) and possible antagonists at different concentrations. Reactions were halted using ice-cold 1% HCl in methanol, and the inositol phosphates (IP) were isolated as described previously [Bologna, M. et al. Cancer 63:1714 (1989); and Endo, T. et al. J. Endocrinol. 131:313 (1991)]. Briefly, after loading of the anion exchange column, free [^3H]glycerophosphorylinositol was removed by washing with 5 mM disodium tetraborate in 60 mM sodium formate. Total [^3H]inositol phosphates were then eluted using 100 mM formic acid in 1.0 M ammonium formate as described previously [Benya, R. V. et al. Mol. Pharmacol. 42:1058 (1992); and Wang, L-H. et al. Biochem. J. 286:641 (1992)].

GRP Receptor = target: T3, GRP Receptor (Rattus norvegicus, UniProt P52500); assay: Amylase release from rat pancreatic acini; assay type: cell-based; conditions: for Rat Pancreatic Acini Amylase Release Alone (10µM): analog 10 µM alone, no-additive control 4 ± 1; for Rat Pancreatic Acini Amylase Release Plus Bn(0.3 nM): analog 10 µM plus Bn 0.3 nM, Bn without analog 15 ± 1
T3 construct: from tissue; host or cells: dispersed pancreatic acini
T3 sequence (P52500 whole entry): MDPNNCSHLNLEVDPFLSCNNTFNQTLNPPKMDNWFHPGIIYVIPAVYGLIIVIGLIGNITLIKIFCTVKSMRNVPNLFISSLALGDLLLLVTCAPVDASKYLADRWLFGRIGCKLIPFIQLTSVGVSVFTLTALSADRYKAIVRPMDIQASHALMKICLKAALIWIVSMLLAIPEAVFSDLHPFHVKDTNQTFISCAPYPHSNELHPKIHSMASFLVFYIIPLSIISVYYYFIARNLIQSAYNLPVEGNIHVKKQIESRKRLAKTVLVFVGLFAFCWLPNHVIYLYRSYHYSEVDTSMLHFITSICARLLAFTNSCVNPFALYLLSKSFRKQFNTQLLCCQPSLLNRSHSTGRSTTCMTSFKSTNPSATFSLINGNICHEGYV

Compound | fold by which cyclo SS-octa was more potent than the analog (rat NMB receptor) [fold] | NMB-R Transfected Cells [^3H]IP Alone (10 µ M) (NMB Receptor) [dpm x 10^3] | NMB-R Transfected Cells [^3H]IP Plus NMB (3 nM) (NMB Receptor) [dpm x 10^3] | Rat Pancreatic Acini Amylase Release Alone (10µM) (GRP Receptor) [% total] | Rat Pancreatic Acini Amylase Release Plus Bn(0.3 nM) (GRP Receptor) [% total] | decrease in NMB receptor affinity compared with #1 (rat NMB receptor) [fold] | effect on NMB-stimulated increase in [^3H]IP (NMB Receptor) | fold greater affinity for the NMB than the GRP receptors (rat NMB receptor; NMB-R transfected cells versus GRP receptors on rat pancreatic acini) [fold]
C[C@@H](O)[C@@H]1NC(=O)[C@H](CCCCN)NC(=O)[C@@H](Cc2c[nH]c3ccccc23)NC(=O)[C@H](Cc2ccc(O)cc2)NC(=O)[C@@H](NC(=O)[C@H](N)Cc2ccccc2)CSSC[C@@H](C(=O)N[C@@H](Cc2ccc3ccccc3c2)C(N)=O)NC1=O [Analog #7, [D-Phe^1, Thr^6]-cyclo-SS-octa] (H-[dF]CY[dW]KTC[2Nal]-NH2; disulfide 2-7; N-terminus assumed) | 18 | 15 ± 1 | 99 ± 24 | 3 ± 1 | 16 ± 1 | – | – | –
CC(C)[C@@H]1NC(=O)[C@H](CCCCN)NC(=O)[C@@H](Cc2c[nH]c3ccccc23)NC(=O)[C@H](Cc2ccc(O)cc2)NC(=O)[C@@H](NC(=O)[C@H](N)Cc2ccc3ccccc3c2)CSSC[C@@H](C(=O)N[C@H](Cc2ccc3ccccc3c2)C(N)=O)NC1=O [Analog #8, [D-Nal^8]-cyclo SS-octa] (H-[d2Nal]CY[dW]KVC[d2Nal]-NH2; disulfide 2-7; N-terminus assumed) | 9 | 10 ± 3 | 67 ± 13 | 2 ± 1 | 14 ± 1 | 6 | – | –
C[C@@H](O)[C@H](NC(=O)[C@@H]1CSSC[C@H](NC(=O)[C@H](N)Cc2ccc3ccccc3c2)C(=O)N[C@@H](Cc2ccc(O)cc2)C(=O)N[C@H](Cc2c[nH]c3ccccc23)C(=O)N[C@@H](CCCCN)C(=O)N[C@@H]([C@@H](C)O)C(=O)N1)C(N)=O [Analog #6, [Thr^6,8]-cyclo-SS-octa] | 69 | 11 ± 2 | 188 ± 30 | 3 ± 1 | 14 ± 2 | – | had no effect | –
CC(C)[C@@H]1NC(=O)[C@H](CCCCN)NC(=O)[C@@H](Cc2c[nH]c3ccccc23)NC(=O)[C@H](Cc2ccc(O)cc2)NC(=O)[C@@H](NC(=O)[C@@H](N)Cc2ccc3ccccc3c2)CSSC[C@@H](C(=O)N[C@H](Cc2ccc3ccccc3c2)C(N)=O)NC1=O [Analog #9, [Nal^1,D-Nal^8]-cyclo SS-octa] (H-[2Nal]CY[dW]KVC[d2Nal]-NH2; disulfide 2-7; N-terminus assumed) | 6 | 8 ± 2 | 28 ± 6 | 3 ± 1 | 16 ± 1 | – | – | –
CC(C)[C@@H]1NC(=O)[C@H](CCCCN)NC(=O)[C@@H](Cc2c[nH]c3ccccc23)NC(=O)[C@H](Cc2ccc(O)cc2)NC(=O)[C@H](NC(=O)[C@H](N)Cc2ccc3ccccc3c2)CSSC[C@@H](C(=O)N[C@@H](Cc2ccc3ccccc3c2)C(N)=O)NC1=O [Analog #10, [D-Cys^2]-cyclo SS-octa] (H-[d2Nal][dC]Y[dW]KVC[2Nal]-NH2; disulfide 2-7; N-terminus assumed) | 6 | 10 ± 3 | 4 ± 2 | 3 ± 1 | 16 ± 1 | 5 | completely inhibited | –
CCN(CC)CCCC[C@@H]1NC(=O)[C@@H](Cc2c[nH]c3ccccc23)NC(=O)[C@H](Cc2ccc(O)cc2)NC(=O)[C@@H](NC(=O)[C@H](N)Cc2ccccc2)CSSC[C@@H](C(=O)N[C@@H](Cc2ccc3ccccc3c2)C(N)=O)NC(=O)[C@H]([C@@H](C)O)NC1=O [Analog #16, [D-Phe^1, Lys(diEt)^5, Thr^6] cyclo SS-octa] (H-[dF]CY[dW][Lys(Et2)]TC[2Nal]-NH2; disulfide 2-7; N-terminus assumed) | 18 | 11 ± 2 | 73 ± 15 | 5 ± 1 | 12 ± 1 | – | – | –
CC(C)[C@@H]1NC(=O)[C@H](CCCCN)NC(=O)[C@@H](Cc2c[nH]c3ccccc23)NC(=O)[C@H](Cc2ccc(O)cc2)NC(=O)[C@@H](NC(=O)[C@H](N)Cc2c[nH]c3ccccc23)CSSC[C@@H](C(=O)N[C@@H](Cc2ccc3ccccc3c2)C(N)=O)NC1=O [Analog #12, [D-Trp^1]-cyclo SS-octa] (H-[dW]CY[dW]KVC[2Nal]-NH2; disulfide 2-7; N-terminus assumed) | 9 | 9 ± 2 | 43 ± 2 | 3 ± 1 | 13 ± 1 | – | – | –
NCCCC[C@@H]1NC(=O)[C@@H](Cc2c[nH]c3ccccc23)NC(=O)[C@H](Cc2ccc(O)cc2)NC(=O)[C@@H](NC(=O)[C@H](N)Cc2ccc3ccccc3c2)CSSC[C@@H](C(=O)N[C@@H](Cc2ccc3ccccc3c2)C(N)=O)NC(=O)[C@H](Cc2ccccc2)NC1=O [Analog #13, [Phe^6]-cyclo SS-octa] (H-[d2Nal]CY[dW]KFC[2Nal]-NH2; disulfide 2-7; N-terminus assumed) | 2 | 10 ± 1 | 9 ± 4 | 3 ± 1 | 14 ± 1 | – | completely inhibited | > 100
C[C@@H](O)[C@H](NC(=O)[C@@H]1CSSC[C@H](NC(=O)[C@H](N)Cc2ccc3ccccc3c2)C(=O)N[C@@H](Cc2ccccc2)C(=O)N[C@H](Cc2c[nH]c3ccccc23)C(=O)N[C@@H](CCCCN)C(=O)N[C@@H]([C@@H](C)O)C(=O)N1)C(N)=O [Analog #18, [Phe^3, Thr^6,8]-cycle SS-octa] (H-[d2Nal]CF[dW]KTCT-NH2; disulfide 2-7) | – | 11 ± 1 | 143 ± 11 | – | – | – | had no effect | –
